Source: ChEMBL document CHEMBL1201862, “PubChem BioAssay data set” (2004)
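1) Cells in 96-well plates. 2) Compound, 48 h, 5 concentrations. 3) Linear interpolation between surrounding doses. 4) Unreached endpoint = highest concentration. GI50: concentration for 50% inhibition of growth.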 Calls of active or inactive are those of the source. Rule as the data show it: active = GI50 up to about 1.1 µM and inactive = higher.

How the values were obtained:
Experiment in all cases: inhibition of tumour cell growth, NCI panel, 48 h
786-0 = system: 786-0
A549 = system: A549
ACHN = system: ACHN
CAKI-1 = system: CAKI-1
CCRF-CEM = system: CCRF-CEM
COLO 205 = system: COLO 205
DLD-1 = system: DLD-1
DMS-114 = system: DMS-114
EKVX = system: EKVX
HCC 2998 = system: HCC 2998
HCT-116 = system: HCT-116
HL-60 = system: HL-60
HOP-62 = system: HOP-62
HOP-92 = system: HOP-92
HT-29 = system: HT-29
IGROV-1 = system: IGROV-1
K562 = system: K562
KM-20L2 = system: KM-20L2
KM12 = system: KM12
LOX IMVI = system: LOX IMVI
LXFL 529 = system: LXFL 529
M14 = system: M14
M19-MEL = system: M19-MEL
MOLT-4 = system: MOLT-4
Malme-3M = system: Malme-3M
NCI-H226 = system: NCI-H226
NCI-H23 = system: NCI-H23
NCI-H460 = system: NCI-H460
NCI-H522 = system: NCI-H522
OVCAR-3 = system: OVCAR-3
OVCAR-4 = system: OVCAR-4
OVCAR-5 = system: OVCAR-5
OVCAR-8 = system: OVCAR-8
RPMI-8226 = system: RPMI-8226
RXF 393 = system: RXF 393
SF-268 = system: SF-268
SF-295 = system: SF-295
SF-539 = system: SF-539
SK-MEL-28 = system: SK-MEL-28
SK-MEL-2 = system: SK-MEL-2
SK-MEL-5 = system: SK-MEL-5
SK-OV-3 = system: SK-OV-3
SN12C = system: SN12C
SNB-19 = system: SNB-19
SNB-75 = system: SNB-75
SNB-78 = system: SNB-78
SW-620 = system: SW-620
TK-10 = system: TK-10
U-251 = system: U-251
UACC-257 = system: UACC-257
UO-31 = system: UO-31
XF498 = system: XF498
A498 = system: A498
DMS-273 = system: DMS-273
HCT-15 = system: HCT-15
MCF7 = system: MCF7
NCI/ADR-RES = system: NCI/ADR-RES

**Q.** Which results are given for CCc1ccccc1NC(=O)C1=C(C)NC(C)=C(C(=O)Nc2c(CC)cccc2CC)C1c1ccc2c(c1)OCO2 (stereo not drawn)?
**A.** GI50 (786-0): 18.3 µM (inactive); GI50 (A549): 17.6 µM (inactive); GI50 (ACHN): 20.5 µM (inactive); GI50 (CAKI-1): 19.5 µM (inactive); GI50 (CCRF-CEM): 19.1 µM (inactive); GI50 (COLO 205): 19.5 µM (inactive); GI50 (DLD-1): 21.9 µM (inactive); GI50 (DMS-114): 20.2 µM (inactive); GI50 (EKVX): 24.2 µM (inactive); GI50 (HCC 2998): 16.5 µM (inactive); GI50 (HCT-116): 16.8 µM (inactive); GI50 (HL-60): 23 µM (inactive); GI50 (HOP-62): 19.7 µM (inactive); GI50 (HOP-92): 12.7 µM (inactive); GI50 (HT-29): 18 µM (inactive); GI50 (IGROV-1): 25.4 µM (inactive); GI50 (K562): 22.7 µM (inactive); GI50 (KM-20L2): 17.6 µM (inactive); GI50 (KM12): 16.1 µM (inactive); GI50 (LOX IMVI): 16.9 µM (inactive); GI50 (LXFL 529): 17 µM (inactive); GI50 (M14): 16.4 µM (inactive); GI50 (M19-MEL): 22.1 µM (inactive); GI50 (MOLT-4): 19.1 µM (inactive); GI50 (Malme-3M): 16.5 µM (inactive); GI50 (NCI-H226): 19.1 µM (inactive); GI50 (NCI-H23): 16.7 µM (inactive); GI50 (NCI-H460): 16.6 µM (inactive); GI50 (NCI-H522): 16.2 µM (inactive); GI50 (OVCAR-3): 17.8 µM (inactive); GI50 (OVCAR-4): 15.2 µM (inactive); GI50 (OVCAR-5): 18.2 µM (inactive); GI50 (OVCAR-8): 25.8 µM (inactive); GI50 (RPMI-8226): 15.8 µM (inactive); GI50 (RXF 393): 12.4 µM (inactive); GI50 (SF-268): 20.3 µM (inactive); GI50 (SF-295): 20.3 µM (inactive); GI50 (SF-539): 21.2 µM (inactive); GI50 (SK-MEL-28): 18.1 µM (inactive); GI50 (SK-MEL-2): 15.2 µM (inactive); GI50 (SK-MEL-5): 14.6 µM (inactive); GI50 (SK-OV-3): 34.5 µM (inactive); GI50 (SN12C): 26 µM (inactive); GI50 (SNB-19): 24.9 µM (inactive); GI50 (SNB-75): 21.8 µM (inactive); GI50 (SNB-78): 26.9 µM (inactive); GI50 (SW-620): 18.1 µM (inactive); GI50 (TK-10): 22.3 µM (inactive); GI50 (U-251): 14.6 µM (inactive); GI50 (UACC-257): 17.7 µM (inactive); GI50 (UO-31): 16.2 µM (inactive); GI50 (XF498): 28.4 µM (inactive)

**Q.** With Cc1cc(-c2ccc(/N=N/c3ccc4c(S(=O)(=O)O)cc(S(=O)(=O)O)c(N)c4c3O)c(C)c2)ccc1/N=N/c1ccc2c(S(=O)(=O)O)cc(S(=O)(=O)O)c(N)c2c1O [EVANS BLUE FREE ACID] as the molecule, how does the GI50 (A498) read?
**A.** > 100 µM (inactive)

**Q.** And the GI50 (A549)?
**A.** > 100 µM (inactive)

**Q.** What about the GI50 (DMS-273) of the same molecule?
**A.** > 100 µM (inactive)

**Q.** And the GI50 (EKVX)?
**A.** > 100 µM (inactive)

**Q.** What about the GI50 (HCC 2998) of the same molecule?
**A.** > 100 µM (inactive)

**Q.** And the GI50 (HCT-15)?
**A.** > 100 µM

**Q.** And the GI50 (HL-60)?
**A.** > 100 µM (inactive)

**Q.** What about the GI50 (HT-29) of the same molecule?
**A.** > 100 µM (inactive)

**Q.** And the GI50 (K562)?
**A.** > 100 µM (inactive)

**Q.** What about the GI50 (KM-20L2) of the same molecule?
**A.** > 100 µM (inactive)

**Q.** And the GI50 (M19-MEL)?
**A.** > 100 µM (inactive)

**Q.** And the GI50 (MCF7)?
**A.** > 100 µM (inactive)

**Q.** What about the GI50 (NCI-H226) of the same molecule?
**A.** > 76.2 µM (inactive)

**Q.** And the GI50 (NCI-H23)?
**A.** > 100 µM (inactive)

**Q.** What about the GI50 (NCI-H460) of the same molecule?
**A.** > 100 µM (inactive)

**Q.** And the GI50 (NCI-H522)?
**A.** > 100 µM (inactive)

**Q.** And the GI50 (NCI/ADR-RES)?
**A.** > 100 µM (inactive)

**Q.** And the GI50 (OVCAR-3)?
**A.** > 100 µM (inactive)

**Q.** What about the GI50 (OVCAR-4) of the same molecule?
**A.** 59.2 µM (inactive)

**Q.** And the GI50 (OVCAR-5)?
**A.** > 100 µM (inactive)

**Q.** And the GI50 (OVCAR-8)?
**A.** > 100 µM (inactive)

**Q.** And the GI50 (RXF 393)?
**A.** > 95.5 µM (inactive)

**Q.** And the GI50 (SF-268)?
**A.** > 100 µM (inactive)

**Q.** What about the GI50 (SF-295) of the same molecule?
**A.** > 100 µM (inactive)

**Q.** And the GI50 (SF-539)?
**A.** > 100 µM (inactive)

**Q.** And the GI50 (SK-MEL-28)?
**A.** > 100 µM (inactive)

**Q.** What about the GI50 (SK-MEL-2) of the same molecule?
**A.** > 100 µM (inactive)

**Q.** What about the GI50 (SK-OV-3) of the same molecule?
**A.** > 100 µM (inactive)

**Q.** And the GI50 (SN12C)?
**A.** > 100 µM (inactive)

**Q.** What about the GI50 (SNB-75) of the same molecule?
**A.** 77.3 µM (inactive)

**Q.** And the GI50 (SNB-78)?
**A.** > 85.7 µM (inactive)

**Q.** And the GI50 (SW-620)?
**A.** > 100 µM (inactive)

**Q.** And the GI50 (U-251)?
**A.** > 100 µM (inactive)

**Q.** And the GI50 (UACC-257)?
**A.** > 100 µM (inactive)

**Q.** What about the GI50 (UO-31) of the same molecule?
**A.** 62.7 µM (inactive)

**Q.** What about the GI50 (XF498) of the same molecule?
**A.** > 77.3 µM (inactive)
